# Laboratory results from article PMC11887673, “Malformin C preferentially kills glioblastoma stem‐like cells via concerted induction of proteotoxic stress and autophagic flux blockade” (Molecular Oncology, 2024).
# Bridge positions count the residues as written; N and C are the ends. Square brackets hold non-standard residues; d marks the D form. Peptide text beside a SMILES is read from it.
# What was measured:
# GSCs = assay: Cell viability, GSCs compared with normal or other cells; assay type: cell-based, human; conditions: 48 h, CellTiter-Glo
# Description: GSC lines NCH421k, NCH441, NCH644, NCH711d, and NCH705 were derived from newly diagnosed GB patients who underwent surgical resection according to the research proposals approved by the Institutional Review Board at the Medical Faculty of Heidelberg (license: Neurosurgery brain tissue 005/2003; samples collected between 2003 and 2010 at Heidelberg University Hospital from patients who gave informed written consent) and performed in accordance to the Declaration of Helsinki. The cells were cultivated in serum‐free stem cell medium up to maximum passage 60 as previously described. Human astrocytes originating from fetal cerebral cortex were purchased from ScienCell, Research Laboratories, Carlsbad, CA, USA (#1800) and cultured in DMEM (Sigma‐Aldrich, Steinheim, Germany) supplemented with 10% (v/v) FCS (Merck Millipore, Darmstadt, Germany), 1 mM sodium pyruvate, 1 × GlutaMAX, and 1 × N‐2 supplement (all Life Technologies, Darmstadt, Germany). Human fetal neural stem cells (HFNSCs) were kindly provided by Dr C Watts at the Department of Clinical Neurosciences, University of Cambridge. Tissue procurement was approved by the Cambridge Local Regional Ethics committee and in accordance with section 16(e) (ii) of the United Kingdom Human Tissue Act and the Declaration of Helsinki. They were established from 12‐ to 14‐week‐old human postmortem fetal tissue as described by Iovino et al. The cells were cultured as neurospheres in neural stem cell medium (DMEM/F‐12 medium, 2% (v/v) B27 supplement, at 20 ng·mL^−1 each of bFGF and EGF, 2.5 μg·mL^−1 heparin). BJ cells (RRID: CVCL_3653) (human fibroblasts) were purchased from ATCC and cultivated in DMEM low glucose supplemented with 10% FCS. […]
# Cells were seeded in 96‐well plates at a density of 8500 cells per well. […] Cell viability was assessed by the CellTiter‐Glo® (Promega) luminescent cell viability assay. […] Data were normalized to the vehicle control, and four parameter logistic curves were fitted and IC50 values calculated using […] […]
# NCH421k [1] = assay: Assessment of synergy, combination cell viability (CellTiter-Glo); assay type: cell-based, human
# Procedure: NCH421k cells were seeded in 96‐well white plates with 8500 cells per well in 40 μL medium. To determine control curves, cells were treated with 50 μL of a 2× concentration of TMZ or CQ and 10 μL of medium and incubated for 48 h. For drug combinations, cells were treated with 10 μL of a 10× concentration of malformin C and with 50 μL of a 2× concentration of TMZ or CQ. Cell viability was determined after 48 h using the CellTiter‐Glo® assay according to the manufacturer's instructions. Synergy was determined using […] at https://synergyfinder.org/ [35].
# [2] = test system: NOD scid gamma (NSG) mice; assay: Toxicity and tolerability of repeated doses; assay type: in vivo, mouse
# Procedure: (§1) NCH421k GSCs were transduced with lentiviral particles carrying the pLenti PGK V5‐LUC Neo plasmid, which was a gift from Eric Campeau (Addgene plasmid # 21471) and transduced cells were selected using 400 μg·mL^−1 G418. Six‐week‐old female NOD.Cg‐Prkdc ^ scid Il2rg ^ tm1Wjl /SzJ (NOD‐SCIDγ) mice were obtained from the animal facility at the DKFZ. All animal experiments were performed according to animal welfare regulations and were approved by the responsible authorities (Regierungspräsidium Karlsruhe, approval number G289‐14). Animals were housed in a temperature‐controlled vivarium on a 12 h : 12 h light–dark cycle with ad libitum food and water, and all animals were monitored daily for health status and tumor‐related symptoms. […] Tumor growth was monitored using an IVIS Lumina Preclinical in vivo IMAGING SYSTEM AND LIVING IMAGE Software (version 2.50.1) (Perkin Elmer, Rodgau, Germany) and volume measurement using calipers once a week for 7 weeks, or until the tumor reached a volume of 500 mm^3.
# (§2) Malformin C has been previously reported to induce fatal toxicity at doses of over 0.9 mg·kg^−1 in BDF1 mice, likely due to an acute inflammatory response. […] Seven days later, after engraftment of the cells was confirmed by the appearance of a luminescence signal, mice were treated with malformin C or DMSO (0.5 mg·kg^−1 3 × per week) for 37 days. […]
# [3] = test system: NCH421k GSCs expressing luciferase; assay: In vivo tumor propagation, flank xenograft; parameters: species or system NSG mice
# Procedure: as §1, §2
# BDF1 mice = conditions: cited from earlier work
# Procedure: Malformin C has been previously reported to induce fatal toxicity at doses of over 0.9 mg·kg^−1 in BDF1 mice, likely due to an acute inflammatory response. […] In a pharmacokinetic study, malfo ...
# [4] = test system: primary astrocytes (pAstro); assay: Caspase 3/7 activation (Caspase Glo); assay type: cell-based, human; conditions: 50 nM, 8 h, n = 3
# Procedure: (§3) A total of 5000 cells were seeded into white 96‐well plates in a volume of 50 μL medium. Malformin C or Az‐mal. C was added to the medium at the indicated concentrations and incubated for the indicated times. Caspase 3/7 activity was measured using the Caspase Glo assay (Promega), according to the manufacturer's protocol.
# NCH441 = assay: Caspase 3/7 activation (Caspase Glo); assay type: cell-based, human; conditions: 50 nM, within 6–8 h, n = 3
# Procedure: as §3
# NCH421k [5] = assay: Caspase 3/7 activation (Caspase Glo); assay type: cell-based, human; conditions: 50 nM, within 6–8 h, n = 3
# Procedure: as §3
# fibroblasts (BJ) = assay: Caspase 3/7 activation (Caspase Glo); assay type: cell-based, human; conditions: 50 nM, 8 h, n = 3
# Procedure: as §3
# [6] = Pharmacokinetics in plasma and blood brain barrier penetration after i.v. administration; assay type: in vivo; conditions: RjOrl:Swiss CD-1, mouse, iv, male CD-1 mice, 0.5 mg·kg^−1 i.v., LC–MS
# Procedure: Pharmacokinetic (PK) parameters in plasma and blood brain barrier penetration after intravenous administration of malformin C were evaluated by Pharmacelsus GmbH. Nine adult male RjOrl : Swiss CD‐1 mice were injected i.v. with 0.5 mg·kg^−1 malformin C. K‐EDTA plasma was obtained from the retrobulbar venous plexus under isoflurane anesthesia. The plasma samples were prepared within 45 min after collection, frozen at −20 °C, and stored at this temperature until processed for LC–MS analysis. For brain collection, mice were sacrificed by cervical dislocation, immediately after the last blood sample was obtained. Brains were dissected, frozen, and stored at −20 °C. PK analysis was performed using […] 5.0 Software, Allersberg, Germany. All experimental procedures were approved by and conducted in accordance with the regulations of the local Animal Welfare authorities (Landesamt für Gesundheit und Verbraucherschutz, Abteilung Lebensmittel‐und Veterinärwesen, Saarbrücken).
compound,measurement,setting,value
malformin A1,loss of viability in GSCs compared with normal cells,GSCs,more potent against GSCs than normal cells
"CCN(CC)CCCC(C)Nc1ccnc2cc(Cl)ccc12 (stereo not shown) [CQ, chloroquine]","synergy with malformin C (SynergyFinder, ZIP synergy score)",NCH421k [1],much stronger
same,inhibition at 23.7 µM,"NCH421k [1]; Homo sapiens, 48 h, CQ 23.7 μM, Malformin C 0 nM, n = 3",17%
same,inhibition at 31.6 µM,"NCH421k [1]; Homo sapiens, 48 h, CQ 31.6 μM, Malformin C 0 nM, n = 3",32%
same,inhibition at 42.2 µM,"NCH421k [1]; Homo sapiens, 48 h, CQ 42.2 μM, Malformin C 0 nM, n = 3",33%
same,inhibition at 75 µM,"NCH421k [1]; Homo sapiens, 48 h, CQ 75 μM, Malformin C 0 nM, n = 3",99%
"Cn1nnc2c(C(N)=O)ncn2c1=O [TMZ, temozolomide]","synergy with malformin C (SynergyFinder, ZIP synergy score)",NCH421k [1],synergistic effect
same,inhibition at 80 µM,"NCH421k [1]; Homo sapiens, 48 h, TMZ 80 μM, Malformin C 0 nM, n = 3",2%
same,inhibition at 160 µM,"NCH421k [1]; Homo sapiens, 48 h, TMZ 160 μM, Malformin C 0 nM, n = 3",6%
same,inhibition at 310 µM,"NCH421k [1]; Homo sapiens, 48 h, TMZ 310 μM, Malformin C 0 nM, n = 3",6%
same,inhibition at 500 µM,"NCH421k [1]; Homo sapiens, 48 h, TMZ 500 μM, Malformin C 0 nM, n = 3",22%
same,inhibition at 1000 µM,"NCH421k [1]; Homo sapiens, 48 h, TMZ 1000 μM, Malformin C 0 nM, n = 3",47%
CN[C@@H]1C[C@H]2O[C@@](C)([C@@H]1OC)n1c3ccccc3c3c4c(c5c6ccccc6n2c5c31)C(=O)NC4 [staurosporine],loss of viability in GSCs compared with normal cells,GSCs,similarly
tunicamycin,loss of viability in GSCs compared with normal cells,GSCs,not more sensitive than astrocytes
CC(C)C[C@@H]1NC(=O)[C@@H](CC(C)C)NC(=O)[C@H](C(C)C)NC(=O)[C@H]2CSSC[C@@H](NC1=O)C(=O)N2 [malformin C] (cyclo(L[dC][dC]V[dL]); disulfide 2-3),tolerability,"[2]; 0.5 mg·kg^−1 i.p. three times per week, NSG mice",tolerated well
same,repeated doses causing intolerable toxicity,[2]; immune-deficient NSG mice,over 0.9 mg·kg^−1
same,weights of the mice,"[3]; 0.5 mg·kg^−1 i.p. 3 × per week, NSG mice, during the study",did not affect the weights of the mice
same,"tumor growth (luminescence, caliper volume)","[3]; flank of NSG mice, 0.5 mg·kg^−1 i.p. 3 × per week for 37 days, monitored 49 days, n = 9 vs 8 DMSO",dramatically suppressed tumor growth
same,doses inducing fatal toxicity,BDF1 mice,over 0.9 mg·kg^−1
same,caspase 3/7 activation,[4],not
same,caspase 3/7 activation,NCH441,significantly activated caspases
same,caspase 3/7 activation,NCH421k [5],significantly activated caspases
same,caspase 3/7 activation,fibroblasts (BJ),not
same,level at time molar at 1 h,"[6]; brain, by 1 h, read-out: equivalent molar concentration in the brain",~1.9 nM
same,half-life,"[6]; K-EDTA plasma, n=3 mice per time point",348 min
